Results as given in patent US10052320B2, “Substituted quinoxalines as FGFR kinase inhibitors” (ASTEX THERAPEUTICS LIMITED, priority 2011, dated 2018).
Where two headings read alike, the source gives them in different places.

Legend:
Type in all cases: cell-based
[1] = target: T1, Ba/F3-Flt3-transfected cells (Homo sapiens, UniProt P36888, cells depend on it, form not given); assay: Ba/F3-Flt3 (minus IL3) cellular proliferation assay, Alamar Blue
T1 sequence (P36888 1-993): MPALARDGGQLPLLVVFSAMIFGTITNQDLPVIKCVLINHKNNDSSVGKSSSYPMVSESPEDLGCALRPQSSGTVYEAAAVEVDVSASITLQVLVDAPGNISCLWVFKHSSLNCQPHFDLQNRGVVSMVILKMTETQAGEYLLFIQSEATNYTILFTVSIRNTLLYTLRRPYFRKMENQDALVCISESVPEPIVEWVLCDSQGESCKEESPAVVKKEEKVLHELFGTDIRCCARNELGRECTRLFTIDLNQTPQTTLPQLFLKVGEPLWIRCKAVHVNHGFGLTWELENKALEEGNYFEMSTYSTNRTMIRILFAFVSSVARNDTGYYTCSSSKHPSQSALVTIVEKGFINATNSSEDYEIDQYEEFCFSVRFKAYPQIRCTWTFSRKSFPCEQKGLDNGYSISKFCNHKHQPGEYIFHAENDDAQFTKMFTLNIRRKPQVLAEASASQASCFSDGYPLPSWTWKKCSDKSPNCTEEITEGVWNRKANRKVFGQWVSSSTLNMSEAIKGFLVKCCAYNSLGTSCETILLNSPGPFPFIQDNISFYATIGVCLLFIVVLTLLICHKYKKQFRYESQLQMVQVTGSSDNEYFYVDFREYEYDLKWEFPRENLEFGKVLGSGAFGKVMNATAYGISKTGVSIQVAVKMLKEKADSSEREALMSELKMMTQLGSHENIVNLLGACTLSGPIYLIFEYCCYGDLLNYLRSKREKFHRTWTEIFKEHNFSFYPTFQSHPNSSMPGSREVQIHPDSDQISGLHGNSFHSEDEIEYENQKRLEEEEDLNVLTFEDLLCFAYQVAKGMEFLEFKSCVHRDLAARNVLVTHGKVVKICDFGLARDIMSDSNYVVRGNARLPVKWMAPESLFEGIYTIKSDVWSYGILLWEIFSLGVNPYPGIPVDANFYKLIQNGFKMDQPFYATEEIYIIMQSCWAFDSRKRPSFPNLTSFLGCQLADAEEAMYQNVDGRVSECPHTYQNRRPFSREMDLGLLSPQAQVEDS

[2] = target: Ba/F3-KDR-transfected cells (Homo sapiens, UniProt P35968); assay: Ba/F3-KDR (minus IL3) cellular proliferation assay, Alamar Blue
Sequence of Ba/F3-KDR-transfected cells (P35968 whole entry, change not shown): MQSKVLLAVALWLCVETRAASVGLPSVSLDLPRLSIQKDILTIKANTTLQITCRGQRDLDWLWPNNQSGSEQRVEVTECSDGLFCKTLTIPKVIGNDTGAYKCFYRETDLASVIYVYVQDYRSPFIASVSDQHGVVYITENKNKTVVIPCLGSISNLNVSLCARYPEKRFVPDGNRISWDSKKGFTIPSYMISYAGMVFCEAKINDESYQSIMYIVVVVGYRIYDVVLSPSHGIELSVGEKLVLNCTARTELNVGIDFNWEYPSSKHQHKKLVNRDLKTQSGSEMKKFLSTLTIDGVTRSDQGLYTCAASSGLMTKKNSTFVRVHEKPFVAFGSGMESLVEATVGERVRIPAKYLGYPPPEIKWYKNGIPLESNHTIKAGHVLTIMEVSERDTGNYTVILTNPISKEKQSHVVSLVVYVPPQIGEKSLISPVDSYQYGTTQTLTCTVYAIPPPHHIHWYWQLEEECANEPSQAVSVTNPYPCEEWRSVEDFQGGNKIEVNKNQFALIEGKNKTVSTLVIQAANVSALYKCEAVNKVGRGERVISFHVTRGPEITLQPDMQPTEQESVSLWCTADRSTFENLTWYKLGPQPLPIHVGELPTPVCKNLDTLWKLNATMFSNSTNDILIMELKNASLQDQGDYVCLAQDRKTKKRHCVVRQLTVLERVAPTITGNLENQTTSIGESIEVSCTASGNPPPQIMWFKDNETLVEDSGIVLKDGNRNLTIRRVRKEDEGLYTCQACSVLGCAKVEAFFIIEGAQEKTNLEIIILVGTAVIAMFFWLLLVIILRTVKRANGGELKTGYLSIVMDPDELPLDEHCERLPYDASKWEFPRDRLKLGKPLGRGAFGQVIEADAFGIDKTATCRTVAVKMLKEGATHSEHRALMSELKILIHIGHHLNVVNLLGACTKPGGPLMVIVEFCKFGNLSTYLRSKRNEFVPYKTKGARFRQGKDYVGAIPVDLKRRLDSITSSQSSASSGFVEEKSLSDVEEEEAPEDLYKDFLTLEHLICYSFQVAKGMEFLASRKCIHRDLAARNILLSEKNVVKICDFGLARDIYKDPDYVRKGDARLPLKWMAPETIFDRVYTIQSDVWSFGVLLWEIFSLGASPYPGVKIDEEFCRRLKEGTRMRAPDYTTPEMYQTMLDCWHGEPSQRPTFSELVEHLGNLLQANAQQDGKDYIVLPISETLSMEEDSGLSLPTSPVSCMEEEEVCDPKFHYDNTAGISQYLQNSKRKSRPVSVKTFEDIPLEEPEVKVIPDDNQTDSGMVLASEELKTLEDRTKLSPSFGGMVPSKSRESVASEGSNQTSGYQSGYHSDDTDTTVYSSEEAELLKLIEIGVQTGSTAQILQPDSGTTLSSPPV
In short: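 Proliferation of KDR-transfected Ba/F3 cells is measured by Alamar Blue fluorescence after 24 h with compound plus 4 h resazurin at 37 °C. For the counterscreen, 10 ng/ml murine IL3 is present.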

[3] = tested on: Ba/F3-Flt3-transfected cells in the presence of 10 ng/ml murine IL3; assay: Ba/F3-Flt3 (plus IL3) cellular proliferation counterscreen, Alamar Blue; conditions: Mus musculus, read-out: BAF3-FLT3 (PLUS IL3) 384 well pIC50 (converted)

| Structure (SMILES) | BAF3-FLT3 (MIN IL3) 384 well pIC50 ([1]; minus IL3) | BAF3-KDR (MIN IL3) 384 well pIC50 ([2]; minus IL3) | BAF3-FLT3 (MIN IL3) 96 well pIC50 ([1]; minus IL3) | IC50 ([3]; plus 10 ng/ml murine IL3) | other results |
| --- | --- | --- | --- | --- | --- |
| COc1cc(OC)cc(N(Cc2cccc(CN)n2)c2ccc3ncc(-c4ccc(N)nc4)nc3c2)c1 [Compound 51] | 5.27 | 5.04 | – | ~7.08 µM | – |
| COc1cc(OC)cc(N(CC(OC(C)=O)C(F)(F)F)c2ccc3ncc(-c4cccnc4)nc3c2)c1 (single isomer, unassigned) [Compound 45] | <5 | <5 | – | > 10 µM | – |
| CNc1ccc(-c2cnc3ccc(N(CCCO)c4cc(OC)cc(OC)c4)cc3n2)cn1 [Compound 116] | <5 | 5.19 | – | > 10 µM | – |
| COc1cc(OC)cc(N(CCCO)c2ccc3ncc(-c4ccc(N5CCNCC5)nc4)nc3c2)c1 [Compound 48] | 5.44 | 5.39 | – | 4.17 µM | – |
| COc1cc(OC)cc(N(CCNC(C)C)c2ccc3ncc(-c4ccccc4)nc3c2)c1 [Compound 121] | ~5.34 | ~5.3 | – | – | – |
| COc1cc(OC)cc(N(CCCO)c2ccc3ncc(-c4ccc(N5CCOCC5)nc4)nc3c2)c1 [Compound 124] | <5 | 5.11 | – | > 10 µM | – |
| COc1cc(OC)cc(N(CCNC(C)C)c2ccc3ncc(-c4ccn(C)c4)nc3c2)c1 [Compound 8] | 5.2 | 6.19 | – | > 10 µM | – |
| CNC(=O)c1cc(-c2cnc3ccc(N(CCN4CCCC4=O)c4cc(OC)cc(OC)c4)cc3n2)ccn1 [Compound 25] | <5 | <5 | – | > 10 µM | – |
| COc1cc(OC)cc(N(CC2CC2)c2ccc3ncc(-c4cn(CCO)nn4)nc3c2)c1 [Compound 40] | <5 | <5 | <5 | > 10 µM | BAF3-KDR (MIN IL3) 96 well pIC50 ([2]; minus IL3): <5 |
| COc1cc(OC)cc(N(CCCO)c2ccc3ncc(-c4ccnc(NC(=O)OC(C)(C)C)c4)nc3c2)c1 [Compound 128] | <5 | <5 | – | > 10 µM | – |
| COc1cc(OC)cc(N(CC2CC2)c2ccc3ncc(-c4ccc5c(ccn5C)c4)nc3c2)c1 [Compound 20] | – | – | – | – | BAF3-FLT3 (MIN IL3) 96 well pIC50 ([1]; minus IL3, 96 well): <5; BAF3-FLT3 (MIN IL3) 384 well pIC50 ([1]; minus IL3, 384 well): <5; BAF3-KDR (MIN IL3) 384 well pIC50 ([2]; minus IL3, 384 well): <5; IC50 ([3]; plus IL3, 384 well): > 10 µM |
| COc1cc(OC)cc(N(CCO)c2ccc3ncc(-c4ccc(OC)nc4)nc3c2)c1 [Compound 111] | <5 | <5 | – | > 10 µM | – |
| COc1cc(OC)cc(N(CC2CC2)c2ccc3ncc(C(=O)NCCN4CCOCC4)nc3c2)c1 [Compound 96] | <5 | <5 | <5 | – | – |
| COc1cc(OC)cc(N(CCNC(C)C)c2ccc3ncc(-c4ccncc4)nc3c2)c1 [Compound 12] | 5.14 | 5.53 | – | > 10 µM | – |
| COc1cc(OC)cc(N(CCO)c2ccc3ncc(-c4ccnc(C(=O)NCCCN)c4)nc3c2)c1 [Compound 123] | <5 | <5 | – | > 10 µM | – |
| CNC(=O)c1cc(-c2cnc3ccc(N(CCNCC(F)(F)F)c4cc(OC)cc(OC)c4)cc3n2)ccn1 [Compound 113] | <5 | <5 | – | – | – |
| CNCCN(c1cc(OC)cc(OC)c1)c1ccc2ncc(-c3ccc(NC(=O)OC(C)(C)C)nc3)nc2c1 [Compound 81] | 5.76 | 5.62 | – | – | – |
| COc1cc(OC)cc(N(CCCO)c2ccc3ncc(-c4ccnc(C(=O)NCCCCN)c4)nc3c2)c1 [Compound 126] | <5 | <5 | – | – | – |
| COc1cc(OC)cc(N(CCCO)c2ccc3ncc(-c4ccc(C)nc4)nc3c2)c1 [Compound 115] | – | 5.06 | – | – | – |
| COc1cc(OC)cc(N(CCCO)c2ccc3ncc(-c4ccnc(N)c4)nc3c2)c1 [Compound 66] | – | 5.52 | – | > 10 µM | – |
| COc1cc(OC)cc(N(CCCO)c2ccc3ncc(-c4ccc(N(C)C(=O)OC(C)(C)C)nc4)nc3c2)c1 [Compound 125] | <5 | <5 | – | – | – |
| COc1cc(OC)cc(N(CC2CC2)c2ccc3ncc(C(=O)NCc4ccc(F)cc4)nc3c2)c1 [Compound 101] | <5 | <5 | <5 | – | – |
| COc1cc(OC)cc(N(CCCO)c2ccc3ncc(-c4cccnc4)nc3c2)c1 [Compound 112] | – | <5 | – | > 10 µM | – |
| COc1cc(OC)cc(N(CCO)c2ccc3ncc(-c4ccc(N)nc4)nc3c2)c1 [Compound 106] | <5.025 | 5.335 | – | – | – |
| COc1cc(OC)cc(N(CCCO)c2ccc3ncc(-c4ccc(F)nc4)nc3c2)c1 [Compound 117] | – | <5 | – | > 10 µM | – |
| CNC(=O)c1cc(-c2cnc3ccc(N(CCN4CCCC4CO)c4cc(OC)cc(OC)c4)cc3n2)ccn1 (stereo not drawn) [Compound 109] | <5 | – | – | – | – |

More lines, main results first:

| BAF3-FLT3 (MIN IL3) 384 well pIC50 ([1]; minus IL3) | BAF3-KDR (MIN IL3) 384 well pIC50 ([2]; minus IL3) | BAF3-FLT3 (MIN IL3) 96 well pIC50 ([1]; minus IL3) | Structure (SMILES) | IC50 ([3]; plus 10 ng/ml murine IL3) | other results |
| --- | --- | --- | --- | --- | --- |
| <5 | <5 | <5 | COc1cc(OC)cc(N(CC2CC2)c2ccc3ncc(-c4cnn(C)n4)nc3c2)c1 [Compound 70] | > 10 µM | BAF3-KDR (MIN IL3) 96 well pIC50 ([2]; minus IL3): <5 |
| <5 | <5 | <5 | COc1cc(OC)cc(N(CC2CC2)c2ccc3ncc(-c4ccn[nH]4)nc3c2)c1 [Compound 58] | 8.32 µM | – |
| <5 | <5 | – | COc1cc(OC)cc(N(CC2CC2)c2ccc3ncc(-n4cnc(CO)c4)nc3c2)c1 [Compound 105] | – | – |
| <5 | <5 | <5 | COc1cc(OC)cc(N(CC2CC2)c2ccc3ncc(-c4nccn4C)nc3c2)c1 [Compound 60] | > 10 µM | – |
| <5 | <5 | <5 | COc1cc(OC)cc(N(CC2CC2)c2ccc3ncc(-n4ccc(C)n4)nc3c2)c1 [Compound 31] | > 10 µM | – |
| <5 | <5 | <5 | COc1cc(OC)cc(N(CC2CC2)c2ccc3ncc(-c4cn(C)nn4)nc3c2)c1 [Compound 71] | > 10 µM | BAF3-KDR (MIN IL3) 96 well pIC50 ([2]; minus IL3): <5 |
| <5 | <5 | <5 | COc1cc(OC)cc(N(CC2CC2)c2ccc3ncc(-c4nnn(C)n4)nc3c2)c1 [Compound 82] | – | BAF3-KDR (MIN IL3) 96 well pIC50 ([2]; minus IL3): <5 |
| <5 | <5 | <5 | COc1cc(OC)cc(N(CC2CC2)c2ccc3ncc(Nc4nccs4)nc3c2)c1 [Compound 98] | – | – |
| <5 | <5 | ~5 | COc1cc(OC)cc(N(CC2CC2)c2ccc3ncc(Nc4nncs4)nc3c2)c1 [Compound 102] | – | – |
| 5.09 | – | <5 | COc1cc(OC)cc(N(CC2CC2)c2ccc3ncc(-c4cnnn4C)nc3c2)c1 [Compound 72] | > 10 µM | – |
| <5 | <5 | <5 | COc1cc(OC)cc(N(CC2CC2)c2ccc3ncc(-c4nccs4)nc3c2)c1 [Compound 97] | – | – |
| <5 | <5 | 5.17 | COc1cc(OC)cc(N(CC2CC2)c2ccc3ncc(-c4cccn4C)nc3c2)c1 [Compound 103] | – | – |
